According to patent US8952024B2, “Herbicidal pyrimidone derivatives” (E I du Pont de Nemours and Company, priority 2009, dated 2015):

How the values were obtained:
Assay type in all cases: in vivo
[1] = system: barnyardgrass (Echinochloa crus-galli); assay: Test A pre-/postemergence plant response
Outline: (§1)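 Plants grown from seed in a loam soil and sand mix received test compounds both as a preemergence soil spray and, at the same time, as a postemergence spray at the one- to two-leaf stage. Injury was judged visually against untreated controls roughly ten days later, 0 meaning no effect and 100 complete control.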

corn (Zea mays) = assay: Test A pre-/postemergence plant response
Outline: as §1

[2] = system: giant foxtail (Setaria faberii); assay: Test A pre-/postemergence plant response
Outline: as §1

[3] = system: large crabgrass (Digitaria sanguinalis); assay: Test A pre-/postemergence plant response
Outline: as §1

[4] = system: morningglory (Ipomoea spp.); assay: Test A pre-/postemergence plant response
Outline: as §1

[5] = system: pigweed (Amaranthus retroflexus); assay: Test A pre-/postemergence plant response
Outline: as §1

[6] = system: velvetleaf (Abutilon theophrasti); assay: Test A pre-/postemergence plant response
Outline: as §1

[7] = system: wheat (Triticum aestivum); assay: Test A pre-/postemergence plant response
Outline: as §1

[8] = system: canarygrass (Phalaris minor); assay: Test B postemergence plant response; conditions: for Plant response rating, Canarygrass: Postemergence; for Canarygrass plant response rating (0 to 100 scale): 62 g ai/ha, postemergence, 0 is no effect, 100 is complete control
Outline: (§2)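 Plants at the 1- to 4-leaf stage (2 to 18 cm tall), grown in pots of peat moss/vermiculite medium with wetting agent and starter nutrients, received postemergence applications of test chemicals. After 13 to 15 days in a greenhouse, injury was rated visually against untreated controls on a 0 (no effect) to 100 (complete control) scale.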

[9] = system: chickweed (Stellaria media); assay: Test B postemergence plant response; conditions: for Plant response rating, Chickweed: Postemergence; for Chickweed plant response rating (0 to 100 scale): 62 g ai/ha, postemergence, 0 is no effect, 100 is complete control
Outline: as §2

[10] = system: windgrass (Apera spica-venti); assay: Test B postemergence plant response; conditions: for Plant response rating, Windgrass: Postemergence; for Windgrass plant response rating (0 to 100 scale): 62 g ai/ha, postemergence, 0 is no effect, 100 is complete control
Outline: as §2

[11] = system: winter barley (Hordeum vulgare); assay: Test B postemergence plant response; conditions: for Plant response rating, Barley: Postemergence; for Barley plant response rating (0 to 100 scale): 62 g ai/ha, postemergence, 0 is no effect, 100 is complete control
Outline: as §2

[12] = Postemergence, 125 g ai/ha, 0 to 100 scale where 0 is no effect and 100 is complete control
[13] = Postemergence, 500 g ai/ha, 0 to 100 scale, 0 = no effect, 100 = complete control, approx. ten days
[14] = Preemergence, 125 g ai/ha, 0 to 100 scale, 0 = no effect, 100 = complete control
[15] = Preemergence, 500 g ai/ha, visual injury, 0 to 100 scale (0 no effect, 100 complete control), approx. ten days
[16] = 31 g ai/ha, 0 to 100 scale (0 no effect, 100 complete control)
[17] = 125 g ai/ha, scale 0 to 100 (0 no effect, 100 complete control)
[18] = 250 g ai/ha, scale 0 to 100 (0 no effect, 100 complete control), 13 to 15 days
[19] = Preemergence, 500 g ai/ha, 0 to 100 scale, 0 = no effect, 100 = complete control

O=C1CCCC(O)=C1C(=O)c1cnc(-c2ccccc2)n(C2CCCC2)c1=O [Compound 131]
65: Plant response rating, Chickweed [9, 16]
0: Plant response rating, Corn (corn (Zea mays); [12]) | Plant response rating, Corn (corn (Zea mays); [14]) | Plant response rating, Corn (corn (Zea mays); [15]) | Plant response rating, Wheat [7, 12] | Plant response rating, Wheat [7, 13] | Plant response rating, Wheat [7, 14] | Plant response rating, Wheat [7, 15] | Plant response rating, Canarygrass ([8]; 16 g ai/ha, 0 to 100 scale) | Canarygrass plant response rating (0 to 100 scale) ([8]; 13 to 15 days) | Plant response rating, Canarygrass [8, 16] | Plant response rating, Canarygrass [8, 17] | Plant response rating, Windgrass ([10]; 16 g ai/ha, 0 to 100 scale) | Windgrass plant response rating (0 to 100 scale) ([10]; 13 to 15 days) | Plant response rating, Windgrass [10, 16] | Plant response rating, Barley ([11]; 16 g ai/ha, 0 to 100 scale) | Barley plant response rating (0 to 100 scale) ([11]; 13 to 15 days) | Plant response rating, Barley [11, 16] | Plant response rating, Barley [11, 17]
60: Plant response rating, Foxtail, Giant [2, 14]
50: Plant response rating, Barnyardgrass [1, 14]
30: Plant response rating, Corn (corn (Zea mays); [13])
5: Plant response rating, Windgrass [10, 17]
80: Plant response rating, Foxtail, Giant [2, 12] | Plant response rating, Foxtail, Giant [2, 15] | Plant response rating, Crabgrass, Large [3, 14] | Plant response rating, Morningglory [4, 15] | Plant response rating, Velvetleaf [6, 14] | Chickweed plant response rating (0 to 100 scale) ([9]; 13 to 15 days)
100: Plant response rating, Barnyardgrass [1, 15] | Plant response rating, Crabgrass, Large [3, 15] | Plant response rating, Morningglory [4, 12] | Plant response rating, Morningglory [4, 13] | Plant response rating, Pigweed [5, 12] | Plant response rating, Pigweed [5, 13] | Plant response rating, Pigweed [5, 14] | Plant response rating, Pigweed [5, 15] | Plant response rating, Velvetleaf [6, 12] | Plant response rating, Velvetleaf [6, 13] | Plant response rating, Velvetleaf [6, 15]
90: Plant response rating, Barnyardgrass [1, 12] | Plant response rating, Barnyardgrass [1, 13] | Plant response rating, Foxtail, Giant [2, 13] | Plant response rating, Crabgrass, Large [3, 12] | Plant response rating, Crabgrass, Large [3, 13] | Plant response rating, Chickweed [9, 17]
45: Plant response rating, Chickweed ([9]; 16 g ai/ha, 0 to 100 scale)

COCCCn1c(-c2cccc(Br)c2)ncc(C(=O)C2=C(O)CCCC2=O)c1=O [Compound 140]
70: Plant response rating, Crabgrass, Large [3, 14]
5: Plant response rating, Canarygrass [8, 17] | Plant response rating, Canarygrass [8, 18] | Windgrass plant response rating (0 to 100 scale) ([10]; 13 to 15 days) | Plant response rating, Windgrass [10, 17]
100: Plant response rating, Barnyardgrass [1, 15] | Plant response rating, Morningglory [4, 12] | Plant response rating, Morningglory [4, 13] | Plant response rating, Pigweed [5, 13] | Plant response rating, Pigweed [5, 15] | Plant response rating, Velvetleaf [6, 12] | Plant response rating, Velvetleaf [6, 13] | Plant response rating, Velvetleaf [6, 15]
45: Plant response rating, Chickweed [9, 17]
90: Plant response rating, Barnyardgrass [1, 12] | Plant response rating, Barnyardgrass [1, 13] | Plant response rating, Foxtail, Giant [2, 13] | Plant response rating, Foxtail, Giant [2, 15] | Plant response rating, Crabgrass, Large [3, 12] | Plant response rating, Crabgrass, Large [3, 13] | Plant response rating, Crabgrass, Large [3, 15] | Plant response rating, Pigweed [5, 12]
10: Chickweed plant response rating (0 to 100 scale) ([9]; 13 to 15 days)
50: Plant response rating, Morningglory [4, 15]
75: Plant response rating, Chickweed [9, 18]
80: Plant response rating, Foxtail, Giant [2, 12] | Plant response rating, Pigweed [5, 14] | Plant response rating, Velvetleaf [6, 14]
0: Plant response rating, Corn (corn (Zea mays); [12]) | Plant response rating, Corn (corn (Zea mays); [14]) | Plant response rating, Corn (corn (Zea mays); [15]) | Plant response rating, Wheat [7, 12] | Plant response rating, Wheat [7, 13] | Plant response rating, Wheat [7, 14] | Plant response rating, Wheat [7, 15] | Canarygrass plant response rating (0 to 100 scale) ([8]; 13 to 15 days) | Plant response rating, Canarygrass [8, 16] | Plant response rating, Chickweed [9, 16] | Plant response rating, Windgrass [10, 16] | Barley plant response rating (0 to 100 scale) ([11]; 13 to 15 days) | Plant response rating, Barley [11, 16] | Plant response rating, Barley [11, 17] | Plant response rating, Barley [11, 18]
30: Plant response rating, Morningglory [4, 14] | Plant response rating, Windgrass [10, 18]
60: Plant response rating, Barnyardgrass [1, 14]
40: Plant response rating, Foxtail, Giant [2, 14]
20: Plant response rating, Corn (corn (Zea mays); [13])

CCCn1c(-c2cccc(Br)c2)ncc(C(=O)C2=C(O)CCCC2=O)c1=O [Compound 141]
30: Plant response rating, Corn (corn (Zea mays); [13]) | Plant response rating, Morningglory [4, 15]
100: Plant response rating, Barnyardgrass [1, 15] | Plant response rating, Crabgrass, Large [3, 15] | Plant response rating, Morningglory [4, 13] | Plant response rating, Pigweed [5, 13] | Plant response rating, Pigweed [5, 15] | Plant response rating, Velvetleaf [6, 12] | Plant response rating, Velvetleaf [6, 13] | Plant response rating, Velvetleaf [6, 15]
5: Plant response rating, Canarygrass [8, 17] | Plant response rating, Canarygrass [8, 18] | Plant response rating, Barley [11, 17] | Plant response rating, Barley [11, 18]
20: Plant response rating, Corn (corn (Zea mays); [12])
25: Plant response rating, Windgrass [10, 16]
35: Windgrass plant response rating (0 to 100 scale) ([10]; 13 to 15 days)
80: Plant response rating, Foxtail, Giant [2, 12] | Plant response rating, Foxtail, Giant [2, 15] | Plant response rating, Crabgrass, Large [3, 12] | Plant response rating, Crabgrass, Large [3, 14]
85: Chickweed plant response rating (0 to 100 scale) ([9]; 13 to 15 days)
60: Plant response rating, Barnyardgrass [1, 14] | Plant response rating, Chickweed [9, 16]
70: Plant response rating, Morningglory [4, 12] | Plant response rating, Pigweed [5, 14] | Plant response rating, Velvetleaf [6, 14]
50: Plant response rating, Windgrass [10, 18]
95: Plant response rating, Chickweed [9, 18]
90: Plant response rating, Barnyardgrass [1, 12] | Plant response rating, Barnyardgrass [1, 13] | Plant response rating, Foxtail, Giant [2, 13] | Plant response rating, Crabgrass, Large [3, 13] | Plant response rating, Pigweed [5, 12] | Plant response rating, Chickweed [9, 17]
0: Plant response rating, Corn (corn (Zea mays); [14]) | Plant response rating, Corn (corn (Zea mays); [15]) | Plant response rating, Morningglory [4, 14] | Plant response rating, Wheat [7, 12] | Plant response rating, Wheat [7, 13] | Plant response rating, Wheat [7, 14] | Plant response rating, Wheat [7, 15] | Canarygrass plant response rating (0 to 100 scale) ([8]; 13 to 15 days) | Plant response rating, Canarygrass [8, 16] | Barley plant response rating (0 to 100 scale) ([11]; 13 to 15 days) | Plant response rating, Barley [11, 16]
40: Plant response rating, Foxtail, Giant [2, 14] | Plant response rating, Windgrass [10, 17]

CCCCn1c(-c2cccc(Cl)c2)ncc(C(=O)C2=C(O)CCCC2=O)c1=O [Compound 146]
60: Plant response rating, Barnyardgrass [1, 14] | Plant response rating, Crabgrass, Large [3, 14] | Plant response rating, Windgrass [10, 17] | Plant response rating, Windgrass [10, 18]
20: Plant response rating, Corn (corn (Zea mays); [12]) | Plant response rating, Wheat [7, 12]
100: Plant response rating, Barnyardgrass [1, 12] | Plant response rating, Barnyardgrass [1, 13] | Plant response rating, Barnyardgrass [1, 15] | Plant response rating, Crabgrass, Large [3, 15] | Plant response rating, Pigweed [5, 12] | Plant response rating, Pigweed [5, 13] | Plant response rating, Pigweed [5, 15] | Plant response rating, Velvetleaf [6, 12] | Plant response rating, Velvetleaf [6, 13] | Plant response rating, Velvetleaf [6, 19]
10: Plant response rating, Morningglory [4, 14] | Plant response rating, Canarygrass [8, 18]
70: Plant response rating, Foxtail, Giant [2, 12] | Plant response rating, Pigweed [5, 14] | Plant response rating, Velvetleaf [6, 14] | Plant response rating, Chickweed [9, 16]
30: Plant response rating, Corn (corn (Zea mays); [13]) | Plant response rating, Corn (corn (Zea mays); [15]) | Plant response rating, Foxtail, Giant [2, 14] | Plant response rating, Barley [11, 18]
90: Plant response rating, Foxtail, Giant [2, 13] | Plant response rating, Foxtail, Giant [2, 15] | Plant response rating, Crabgrass, Large [3, 13] | Plant response rating, Morningglory [4, 12] | Plant response rating, Morningglory [4, 13]
0: Plant response rating, Corn (corn (Zea mays); [14]) | Plant response rating, Wheat [7, 14] | Canarygrass plant response rating (0 to 100 scale) ([8]; 13 to 15 days) | Plant response rating, Canarygrass [8, 16] | Barley plant response rating (0 to 100 scale) ([11]; 13 to 15 days) | Plant response rating, Barley [11, 16]
50: Plant response rating, Wheat [7, 13] | Windgrass plant response rating (0 to 100 scale) ([10]; 13 to 15 days)
98: Plant response rating, Chickweed [9, 17] | Plant response rating, Chickweed [9, 18]
5: Plant response rating, Canarygrass [8, 17]
40: Plant response rating, Wheat [7, 19]
95: Chickweed plant response rating (0 to 100 scale) ([9]; 13 to 15 days)
15: Plant response rating, Barley [11, 17]
80: Plant response rating, Crabgrass, Large [3, 12]
45: Plant response rating, Windgrass [10, 16]
